In ChEMBL document CHEMBL2412969, “Antihyperglycemic and antihyperlipidemic activities of 2-(4-[(2-hydroxybenzyl) amino]-phenyl amino-methyl)-phenol in STZ induced diabetic rats” (Eur J Med Chem, 2013):
The source made the active and inactive calls. The rule behind the calls is not given here.

Legend:
Rattus norvegicus [1] = assay: Antihyperglycemic activity in Wistar albino rat streptozotocin-induced diabetic model assessed as reduction of blood glucose level at 20 mg/kg, po after 6 hrs (reference value: 372.5 +/- 15.6 mg/dl); assay type: functional
Rattus norvegicus [2] = assay: Antihyperglycemic activity in Wistar albino rat streptozotocin-induced diabetic model assessed as reduction of blood glucose level at 20 mg/kg, po after 5 hrs (reference value: 372.2 +/- 16.6 mg/dl); assay type: functional
Rattus norvegicus [3] = assay: Antihyperglycemic activity in Wistar albino rat streptozotocin-induced diabetic model assessed as reduction of blood glucose level at 20 mg/kg, po after 4 hrs (reference value: 373.5 +/- 15.6 mg/dl); assay type: functional
Rattus norvegicus [4] = assay: Antihyperglycemic activity in Wistar albino rat streptozotocin-induced diabetic model assessed as reduction of blood glucose level at 20 mg/kg, po after 3 hrs (reference value: 384.33 +/- 17.33 mg/dl); assay type: functional
Rattus norvegicus [5] = assay: Antihyperglycemic activity in Wistar albino rat streptozotocin-induced diabetic model assessed as reduction of blood glucose level at 20 mg/kg, po after 2 hrs (reference value: 386.66 +/- 17.5 mg/dl); assay type: functional
Rattus norvegicus [6] = assay: Antihyperglycemic activity in Wistar albino rat streptozotocin-induced diabetic model assessed as reduction of blood glucose level at 20 mg/kg, po after 1 hr (reference value: 389.16 +/- 19 mg/dl); assay type: functional
Rattus norvegicus [7] = assay: Antiatherosclerosis activity in Wistar albino rat streptozotocin-induced diabetic model assessed as protection from atherogenicity at 20 mg/kg, po qd for 30 days relative to control; assay type: functional
Rattus norvegicus [8] = assay: Renalprotective activity in Wistar albino rat assessed as protection against streptozotocin-induced increase in creatinine level in blood at 20 mg/kg, po qd for 30 days; assay type: functional
Rattus norvegicus [9] = assay: Renalprotective activity in Wistar albino rat assessed as protection against streptozotocin-induced increase in urea level in blood at 20 mg/kg, po qd for 30 days; assay type: functional
Rattus norvegicus [10] = assay: Antihyperlipidemic activity in Wistar albino rat streptozotocin-induced diabetic model assessed as increase of serum HDL-cholesterol level at 20 mg/kg, po qd for 30 days; assay type: functional, organism-based; design: dose 20 mg/kg
Rattus norvegicus [11] = assay: Antihyperlipidemic activity in Wistar albino rat streptozotocin-induced diabetic model assessed as reduction of serum VLDL-cholesterol level at 20 mg/kg, po qd for 30 days; assay type: functional, organism-based; design: dose 20 mg/kg
Rattus norvegicus [12] = assay: Antihyperlipidemic activity in Wistar albino rat streptozotocin-induced diabetic model assessed as reduction of serum LDL level at 20 mg/kg, po qd for 30 days; assay type: functional, organism-based; design: dose 20 mg/kg
Rattus norvegicus [13] = assay: Antihyperlipidemic activity in Wistar albino rat streptozotocin-induced diabetic model assessed as reduction of serum total cholesterol level at 20 mg/kg, po qd for 30 days; assay type: functional, organism-based; design: dose 20 mg/kg
Rattus norvegicus [14] = assay: Antihyperlipidemic activity in Wistar albino rat streptozotocin-induced diabetic model assessed as reduction of serum triglyceride level at 20 mg/kg, po qd for 30 days; assay type: functional, organism-based; design: dose 20 mg/kg
Rattus norvegicus [15] = assay: Antihyperglycemic activity in Wistar albino rat streptozotocin-induced diabetic model assessed as increase of body weight at 20 mg/kg, po qd measured on day 15 (reference value: -30.3%); assay type: functional
Rattus norvegicus [16] = assay: Antihyperglycemic activity in Wistar albino rat streptozotocin-induced diabetic model assessed as reduction of fasting blood glucose level at 20 mg/kg, po qd measured on day 30 relative to control; assay type: functional
Rattus norvegicus [17] = assay: Antihyperglycemic activity in Wistar albino rat streptozotocin-induced diabetic model assessed as reduction of fasting blood glucose level at 20 mg/kg, po qd measured on day 15 (reference value: 404.2 +/- 29.15 mg/dl); assay type: functional
Rattus norvegicus [18] = assay: Antihyperglycemic activity in Wistar albino rat streptozotocin-induced diabetic model assessed as reduction of fasting blood glucose level at 20 mg/kg, po qd measured on day 1 (reference value: 416.4 +/- 24.2 mg/dl); assay type: functional

COc1ccc(Cl)cc1C(=O)NCCc1ccc(S(=O)(=O)NC(=O)NC2CCCCC2)cc1 [GLYBURIDE] gave an Activity (Rattus norvegicus [1]) of 206 mg/dL, an Activity (Rattus norvegicus [2]) of 188.1 mg/dL and an Activity (Rattus norvegicus [3]) of 197.6 mg/dL. The Activity (Rattus norvegicus [4]) was 213.3 mg/dL, the Activity (Rattus norvegicus [5]) was 237 mg/dL and the Activity (Rattus norvegicus [6]) was 243.5 mg/dL. The Activity (Rattus norvegicus [7]) was 55.5%, the Activity (Rattus norvegicus [8]) was 0.425 mg/dL and the Activity (Rattus norvegicus [9]) was 49.1 mg/dL. For the same compound, the Activity (Rattus norvegicus [10]) was “Active”, the Activity (Rattus norvegicus [11]) was “Active” and the Activity (Rattus norvegicus [12]) was “Active”. The Activity (Rattus norvegicus [13]) was “Active”, the Activity (Rattus norvegicus [14]) was “Active” and the Activity (Rattus norvegicus [15]) was -10%. The Activity (Rattus norvegicus [16]) was 188.1 mg/dL, the Activity (Rattus norvegicus [17]) was 204 mg/dL and the Activity (Rattus norvegicus [18]) was 356 mg/dL.
